# Laboratory results published in ChEMBL document CHEMBL1201862, “PubChem BioAssay data set” (2004).
#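 Growth conditions: 96-well plates. Treatment: test compound, 48 hours, 5 concentrations. Analysis: linear interpolation between bracketing concentrations; unreached endpoints set to highest concentration. The concentration for 50% growth inhibition is given as GI50.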 The source made the active and inactive calls. Cut-off read from the data, not from the text of the source: active = GI50 up to about 1.1 µM and inactive = higher.
# What was measured:
# Assay in all cases: NCI-60 cell line screen, 48 h
# NCI-H522 = system: NCI-H522
# EKVX = system: EKVX
# SNB-19 = system: SNB-19
# UACC-62 = system: UACC-62
# UACC-257 = system: UACC-257
# NCI-H226 = system: NCI-H226
# 786-0 = system: 786-0
# SK-MEL-2 = system: SK-MEL-2
# HL-60 = system: HL-60
# OVCAR-4 = system: OVCAR-4
# OVCAR-5 = system: OVCAR-5
# KM12 = system: KM12
# HT-29 = system: HT-29
# SW-620 = system: SW-620
# NCI-H460 = system: NCI-H460
# OVCAR-8 = system: OVCAR-8
# A498 = system: A498
# K562 = system: K562
# SNB-78 = system: SNB-78
# CAKI-1 = system: CAKI-1
# MOLT-4 = system: MOLT-4
# OVCAR-3 = system: OVCAR-3
# U-251 = system: U-251
# M14 = system: M14
# SK-OV-3 = system: SK-OV-3
# A549 = system: A549
# UO-31 = system: UO-31
# ACHN = system: ACHN
# RPMI-8226 = system: RPMI-8226
# SF-539 = system: SF-539
# IGROV-1 = system: IGROV-1
# HOP-92 = system: HOP-92
# SK-MEL-5 = system: SK-MEL-5
# CCRF-CEM = system: CCRF-CEM
# SF-268 = system: SF-268
# DMS-273 = system: DMS-273
# HOP-62 = system: HOP-62
# COLO 205 = system: COLO 205
# LOX IMVI = system: LOX IMVI
# TK-10 = system: TK-10
# XF498 = system: XF498
# HCT-15 = system: HCT-15
# SK-MEL-28 = system: SK-MEL-28
# Malme-3M = system: Malme-3M
# SN12C = system: SN12C
# SF-295 = system: SF-295
# HCC 2998 = system: HCC 2998
# SR = system: SR
# HCT-116 = system: HCT-116
# M19-MEL = system: M19-MEL
# NCI-H23 = system: NCI-H23
# LXFL 529 = system: LXFL 529
# KM-20L2 = system: KM-20L2
# SNB-75 = system: SNB-75
# HOP-18 = system: HOP-18
# RXF 393 = system: RXF 393
# MCF7 = system: MCF7
# DLD-1 = system: DLD-1
# NCI/ADR-RES = system: NCI/ADR-RES
# DMS-114 = system: DMS-114
structure (smiles),measurement,setting,value
COC(=O)/C(=N/O)C(C(=O)C=C(C)C)C(=O)C(=O)Nc1nc2ccc([N+](=O)[O-])cc2s1 (stereo unspecified),GI50,NCI-H522,32.1 µM (inactive)
same,GI50,EKVX,16.7 µM (inactive)
same,GI50,SNB-19,67.9 µM (inactive)
same,GI50,UACC-62,32.6 µM (inactive)
same,GI50,UACC-257,44.6 µM (inactive)
same,GI50,NCI-H226,23.6 µM (inactive)
same,GI50,786-0,37.3 µM (inactive)
same,GI50,SK-MEL-2,25.8 µM (inactive)
same,GI50,HL-60,38.2 µM (inactive)
same,GI50,OVCAR-4,31.8 µM (inactive)
same,GI50,OVCAR-5,37.7 µM (inactive)
same,GI50,KM12,47.2 µM (inactive)
same,GI50,HT-29,59.7 µM (inactive)
same,GI50,SW-620,33.8 µM (inactive)
same,GI50,NCI-H460,37.9 µM (inactive)
same,GI50,OVCAR-8,39.5 µM (inactive)
same,GI50,A498,10.5 µM (inactive)
same,GI50,K562,28.9 µM (inactive)
same,GI50,SNB-78,27.7 µM (inactive)
same,GI50,CAKI-1,24.2 µM (inactive)
same,GI50,MOLT-4,23.9 µM (inactive)
same,GI50,OVCAR-3,21.5 µM (inactive)
same,GI50,U-251,49.5 µM (inactive)
same,GI50,M14,54.7 µM (inactive)
same,GI50,SK-OV-3,24.8 µM (inactive)
same,GI50,A549,30.8 µM (inactive)
same,GI50,UO-31,26.8 µM (inactive)
same,GI50,ACHN,24.4 µM (inactive)
same,GI50,RPMI-8226,27.9 µM (inactive)
same,GI50,SF-539,23.2 µM (inactive)
same,GI50,IGROV-1,36.9 µM (inactive)
same,GI50,HOP-92,13.1 µM (inactive)
same,GI50,SK-MEL-5,43.8 µM (inactive)
same,GI50,CCRF-CEM,24.7 µM (inactive)
same,GI50,SF-268,28.3 µM (inactive)
same,GI50,DMS-273,45.4 µM (inactive)
same,GI50,HOP-62,32.9 µM (inactive)
same,GI50,COLO 205,41.6 µM (inactive)
same,GI50,LOX IMVI,22.9 µM (inactive)
same,GI50,TK-10,27.3 µM (inactive)
same,GI50,XF498,58.7 µM (inactive)
same,GI50,HCT-15,30.7 µM
same,GI50,SK-MEL-28,58.7 µM (inactive)
same,GI50,Malme-3M,27.5 µM (inactive)
same,GI50,SN12C,32.2 µM (inactive)
same,GI50,SF-295,36.8 µM (inactive)
same,GI50,HCC 2998,35.6 µM (inactive)
same,GI50,SR,38.1 µM (inactive)
same,GI50,HCT-116,41.7 µM (inactive)
same,GI50,M19-MEL,> 100 µM (inactive)
same,GI50,NCI-H23,25.2 µM (inactive)
same,GI50,LXFL 529,25.6 µM (inactive)
same,GI50,KM-20L2,80.2 µM (inactive)
CCCCN(C)/N=N/c1[nH]cnc1C(N)=O,GI50,NCI-H522,> 100 µM (inactive)
same,GI50,EKVX,> 100 µM (inactive)
same,GI50,SNB-19,> 100 µM (inactive)
same,GI50,UACC-62,57.1 µM (inactive)
same,GI50,UACC-257,> 73.5 µM (inactive)
same,GI50,NCI-H226,> 100 µM (inactive)
same,GI50,SK-MEL-2,44.6 µM (inactive)
same,GI50,HL-60,60.7 µM (inactive)
same,GI50,OVCAR-4,68.9 µM (inactive)
same,GI50,OVCAR-5,> 85.1 µM (inactive)
same,GI50,SNB-75,> 100 µM (inactive)
same,GI50,HOP-18,> 100 µM (inactive)
same,GI50,KM12,> 100 µM (inactive)
same,GI50,HT-29,> 100 µM (inactive)
same,GI50,SW-620,> 100 µM (inactive)
same,GI50,NCI-H460,> 100 µM (inactive)
same,GI50,OVCAR-8,78.2 µM (inactive)
same,GI50,A498,> 71.1 µM (inactive)
same,GI50,K562,> 80.7 µM (inactive)
same,GI50,SNB-78,> 100 µM (inactive)
same,GI50,CAKI-1,20.3 µM (inactive)
same,GI50,MOLT-4,41.2 µM (inactive)
same,GI50,RXF 393,> 66.7 µM (inactive)
same,GI50,OVCAR-3,99.5 µM (inactive)
same,GI50,U-251,> 100 µM (inactive)
same,GI50,SK-OV-3,35.8 µM (inactive)
same,GI50,A549,> 100 µM (inactive)
same,GI50,UO-31,> 100 µM (inactive)
same,GI50,RPMI-8226,> 100 µM (inactive)
same,GI50,SF-539,> 100 µM (inactive)
same,GI50,IGROV-1,> 77.8 µM (inactive)
same,GI50,HOP-92,47.6 µM (inactive)
same,GI50,MCF7,> 100 µM (inactive)
same,GI50,SK-MEL-5,> 100 µM (inactive)
same,GI50,DLD-1,> 100 µM (inactive)
same,GI50,CCRF-CEM,52.4 µM (inactive)
same,GI50,SF-268,> 100 µM (inactive)
same,GI50,DMS-273,58.7 µM (inactive)
same,GI50,COLO 205,> 100 µM (inactive)
same,GI50,LOX IMVI,36.7 µM (inactive)
same,GI50,XF498,32.4 µM (inactive)
same,GI50,HCT-15,> 100 µM
same,GI50,SK-MEL-28,> 100 µM (inactive)
same,GI50,NCI/ADR-RES,> 100 µM (inactive)
same,GI50,Malme-3M,> 86.9 µM (inactive)
same,GI50,DMS-114,> 100 µM (inactive)
same,GI50,SN12C,> 100 µM (inactive)
same,GI50,SF-295,> 94.2 µM (inactive)
same,GI50,HCC 2998,> 94.4 µM (inactive)
same,GI50,HCT-116,> 100 µM (inactive)
same,GI50,M19-MEL,> 100 µM (inactive)
same,GI50,NCI-H23,> 100 µM (inactive)
same,GI50,KM-20L2,> 50.2 µM (inactive)
